# Reference: PubChem BioAssay (NCI)
#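 The compound was tested at five concentrations on cells cultured in 96-well plates, with a 48-hour exposure period. GI50 marks 50% less growth. TGI denotes the concentration required for complete inhibition of growth.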
# Tests used:
# Experiment in all cases: growth of human tumour cells (NCI), 48 h
# [1] = system: NCI-H460 lung
# [2] = system: BT-549 breast
# [3] = system: SF-539 CNS
# [4] = system: MDA-MB-231 breast
# [5] = system: NCI-H23 lung
# [6] = system: A498 renal
# [7] = system: RPMI-8226 leukemia
# [8] = system: EKVX NSCLC
# [9] = system: UACC-62 melanoma
# [10] = system: HCC-2998 colon
Structure (SMILES),GI50 [1] [µM],TGI [1] [µM],GI50 [2] [µM],TGI [2] [µM],GI50 [3] [µM],TGI [3] [µM],GI50 [4] [µM],TGI [4] [µM],GI50 [5] [µM],TGI [5] [µM],GI50 [6] [µM],TGI [6] [µM],GI50 [7] [µM],TGI [7] [µM],GI50 [8] [µM],TGI [8] [µM],GI50 [9] [µM],TGI [9] [µM],TGI [10] [µM],GI50 [10] [µM]
N=C(N)/N=C(\N)c1c(-c2cc(O)ccc2O)nc2sccn12,> 100,> 100,30.4,84.3,20.4,38.4,18.9,39.8,19.5,34.1,> 100,> 100,21.9,49.5,98.6,> 100,44.6,> 100,,
Cc1ccc(S(=O)(=O)Oc2ccc([N+](=O)[O-])cc2[N+](=O)[O-])cc1,15.4,39,5.41,18,4.54,18.2,6.7,22.1,6.15,32.3,11.8,24.9,2.45,7.84,17.9,34.4,12.4,30.9,,
COc1cc2c(c(OC)c1O)-c1ccc(OC)c(=O)cc1[C@@H](NC(=O)C(F)(F)F)CC2,,,,> 100,,0.087,,0.628,,,,2.21,,0.0699,,> 100,,> 100,14.1,
CCOC(CCCNCCCn1c2c(c3cc(OC)c(OC)cc3c1=O)C(=O)c1cc3c(cc1-2)OCO3)OCC,0.884,7.3,,,,,2.65,10.1,5.65,11.7,5.79,12.1,0.308,8.45,,,6.03,12.2,,
CCOC(=O)C(Cc1c[nH]c2ccc([N+](=O)[O-])cc12)(NC(C)=O)C(=O)OCC,> 306,> 1000,44.5,426,134,> 473,140,> 1000,85,> 1000,8.18,> 390,,,> 1000,> 1000,40.5,> 1000,> 1000,> 1000
COc1ccc2c(c1O)C(=O)C(CCC(=O)O)CC2 (stereo not drawn),,> 100,,,,> 100,,,,> 100,,> 100,,> 100,,> 100,,> 100,> 100,
O=C(NCCc1ccccc1)C(c1ccccc1)(c1ccccc1)c1ccccc1,31.5,> 100,5.99,44.9,,,0.519,4.21,,,,,15.9,> 100,4.13,27.1,1.46,14.6,,
CC(=O)[O-].CC(=O)[O-].O=C(N/N=C/c1cc(Cl)cc(Cl)c1O)c1ccncc1.[Ni+2],,> 100,,,,> 100,,,,> 100,,> 100,,> 100,,> 100,,> 100,> 100,
C=CCCCn1ccc2ccccc21,,> 100,,,,> 100,,,,> 100,,> 100,,> 100,,> 100,,> 100,> 100,
CCCCCCCCCCCCCCCCOCC(CN(C)CCN(C)C)OCCCCCCCCCCCCCCCC (stereo not drawn),,> 100,,,,,,,,> 100,,> 100,,> 100,,> 100,,> 100,> 100,
C[N+](C)(C)CC(=O)N/N=C(\CCC(=O)NCCc1ccccc1)CC(=O)c1ccccc1,,> 100,,,,> 100,,,,> 100,,> 100,,> 100,,> 100,,> 100,> 100,
C#Cc1c(C)c(/C=C/C(C)=C/C=C/C(C)=C/C(=O)OC)n(C)c1C,,> 100,,,,> 100,,,,> 100,,,,> 100,,> 100,,> 100,,
Cc1nnc(N=Nc2c(O)[nH]c3c(Cl)cc(Cl)cc23)n1N,,> 100,,,,> 100,,,,> 100,,> 100,,> 100,,> 100,,> 100,> 100,
O=C1Nc2cc(Cl)ccc2N=CC1NC(=O)C(c1ccccc1)c1ccccc1Cl (stereo not drawn),,> 100,,,,> 100,,,,> 100,,> 100,,> 100,,> 100,,> 100,> 100,
COc1cccc(Cn2c(-c3nonc3N)nc3ccccc32)c1,0.378,> 34.6,0.365,68.5,0.237,0.696,0.879,> 100,0.717,> 100,0.0532,0.696,0.377,> 100,,,0.493,> 100,> 100,1.47
Cc1nc2ccccn2c1NC(=O)NNC(=S)Nc1ccc(Br)cc1,34.1,> 100,42.8,> 100,22.4,55.2,22.6,59.1,,,32.8,88.1,41.6,> 100,46.4,> 100,27.8,> 100,73.1,27.4
COc1ccc(-c2nsc3c2NC(=O)CC3c2ccc(F)cc2)cc1 (stereo not drawn),3.46,> 100,7.72,> 100,3.56,67.8,6.68,> 100,6.1,> 100,2.37,> 100,4.94,> 100,,,4.66,> 100,> 100,> 21.7
COCc1c(CO)cnc(C)c1OC1OC(CO)C(O)C(O)C1O (stereo not drawn),,> 100,,,,> 100,,,,,,> 100,,> 100,,> 100,,> 100,> 100,
